Usually EC50 stands for the midpoint of the concentration-response curve.

These results are taken from article PMC11482831 (bioRxiv, 2024).

Assay [1] has as its target AMY1R on cells (HiBiT-CTR.25–474 : mCitrine-RAMP1.24–148) (human) (UniProt O60894). The assay can be described thus: FRET or BRET. On the technique in general: Bioluminescence resonance energy transfer reports proximity on the nanometre scale.
In assay [2] the test system is AMY2R (HiBiT-CTR:mCitrine-RAMP2). The assay can be described thus: CTR:RAMP cell surface proximity BRET assay, AMY2R. The assay is classed as cell-based, human. The following applies: 300 nM agonist, HEK293 cells, room temperature, 30 min, pH 7.4.
In assay [3] the target is AMY1R (HiBiT-CTR:mCitrine-RAMP1) (Homo sapiens, UniProt O60894+P30988). The assay can be described thus: CTR:RAMP cell surface proximity BRET assay, AMY1R. The assay is classed as cell-based. Particulars: 300 nM agonist, HEK293 cells, room temperature, 30 min, pH 7.4.
Assay [4] has as its target T1, CTR:R3 (AMY3R) (Homo sapiens, UniProt O60896+P30988).
T1 sequence (P30988 25-474): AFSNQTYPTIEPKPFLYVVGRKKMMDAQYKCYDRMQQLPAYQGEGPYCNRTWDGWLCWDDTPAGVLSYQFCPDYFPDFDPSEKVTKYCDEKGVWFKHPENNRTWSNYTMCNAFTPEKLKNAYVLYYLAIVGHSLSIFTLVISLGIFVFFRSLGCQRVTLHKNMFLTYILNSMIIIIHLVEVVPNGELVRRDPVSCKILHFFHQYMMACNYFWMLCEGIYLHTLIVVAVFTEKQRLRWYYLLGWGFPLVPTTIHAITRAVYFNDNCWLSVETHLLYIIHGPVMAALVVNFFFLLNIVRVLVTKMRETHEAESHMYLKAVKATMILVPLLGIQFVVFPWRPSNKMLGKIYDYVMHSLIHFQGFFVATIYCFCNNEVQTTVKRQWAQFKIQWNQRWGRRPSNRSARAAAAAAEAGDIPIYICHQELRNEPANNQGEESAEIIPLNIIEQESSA
T1 sequence (O60896 25-148): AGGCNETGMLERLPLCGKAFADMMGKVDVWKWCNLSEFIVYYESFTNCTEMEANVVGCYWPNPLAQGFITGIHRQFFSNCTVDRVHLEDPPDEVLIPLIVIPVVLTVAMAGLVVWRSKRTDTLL
Particulars: 50 μM SUMO-miniGs, agonist titration.

The target of assay [5] is T2, AMY3R (HiBiT-CTR:mCitrine-RAMP3) (Homo sapiens, UniProt O60896+P30988).
T2 sequence (P30988 25-474): T1 sequence (P30988 25-474)
The assay can be described thus: CTR:RAMP cell surface proximity BRET assay, AMY3R. The assay is classed as cell-based. The following applies: 300 nM agonist, HEK293 cells, room temperature, 30 min, pH 7.4.

Assay [6] relates to AMY1R (CTR:RAMP1). The assay can be described thus: Native PAGE mobility shift assay, single-point, AMY1R. The assay is classed as biochemical, human. Particulars: 10 μM agonist, no mGs, detergent-solubilized (LMNG/CHS), in-gel mCitrine fluorescence, qualitative, three replicates.
Assay [7] relates to AMY2R (CTR:RAMP2). The assay can be described thus: Native PAGE mobility shift assay, single-point, AMY2R. In kind it is biochemical, human. The following applies: 10 μM agonist, no mGs, detergent-solubilized (LMNG/CHS), in-gel mCitrine fluorescence, qualitative, three replicates.
The target of assay [8] is CTR:R1 (AMY1R) (Homo sapiens, UniProt O60894+P30988). The assay can be described thus: Native PAGE agonist titration with excess SUMO-miniGs, AMY1R. The following applies: 50 μM SUMO-miniGs.
The conditions of assay [9]: cited from earlier work.
Assay [10] deals with CTR + RAMP1 (Homo sapiens, UniProt O60894+P30988). The assay can be described thus: cAMP signaling CAMYEL biosensor BRET assay in COS-7 cells, CTR + RAMP1. The following applies: 30 min, 37°C, vs CTR alone.
Assay [11] has as its target T3, CTR + RAMP3 (Homo sapiens, UniProt O60896+P30988).
T3 sequence (P30988 25-474): T1 sequence (P30988 25-474)
T3 sequence (O60896 24-148): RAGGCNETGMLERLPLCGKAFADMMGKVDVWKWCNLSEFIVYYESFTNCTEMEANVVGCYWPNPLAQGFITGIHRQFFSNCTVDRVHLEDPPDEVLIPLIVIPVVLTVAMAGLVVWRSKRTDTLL
The assay can be described thus: cAMP signaling CAMYEL biosensor BRET assay in COS-7 cells, CTR + RAMP3. The following applies: 30 min, 37°C.

In assay [12] the target is CTR:R2 (AMY2R) (Homo sapiens, UniProt O60895+P30988). The following applies: 50 μM SUMO-miniGs, agonist titration.

Bridge positions count the residues as written; N and C are the ends. Ends that are not written are not given here.

CTR:R1 (AMY1R), sequence (O60894 24-148, one chain of several): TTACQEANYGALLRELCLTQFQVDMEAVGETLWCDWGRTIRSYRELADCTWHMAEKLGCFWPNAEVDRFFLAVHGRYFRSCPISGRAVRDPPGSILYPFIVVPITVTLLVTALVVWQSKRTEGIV
AMY1R (HiBiT-CTR:mCitrine-RAMP1), sequence (O60894 24-148, one chain of several): as above
CTR:R2 (AMY2R), sequence (O60895 55-175, one chain of several): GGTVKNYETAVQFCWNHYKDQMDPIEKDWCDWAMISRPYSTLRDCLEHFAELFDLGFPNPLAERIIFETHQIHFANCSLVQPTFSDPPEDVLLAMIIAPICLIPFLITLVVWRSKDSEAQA
CTR + RAMP1, sequence (O60894 27-148, one chain of several): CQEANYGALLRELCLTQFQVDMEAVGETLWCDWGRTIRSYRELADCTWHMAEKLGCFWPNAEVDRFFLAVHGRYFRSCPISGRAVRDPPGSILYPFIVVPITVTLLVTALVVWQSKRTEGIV
human αCGRP, sequence (P06881 83-119): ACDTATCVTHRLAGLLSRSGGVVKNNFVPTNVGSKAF

Regarding “human αCGRP (from UniProt P06881 83-119) (peptide)”, the EC50 in [1] turned out to be 0.03 µM.
Turning to salmon calcitonin [sCT], the “Change in CTR:RAMP proximity BRET signal, real-time” value (from here on “Change … real-time”) in assay [2] is on record as “a brief initial decrease followed by a gradual increase”; in [3] it was “similarly decreased it”; in assay [5], “decreased the BRET signal”. In addition, in [4], the “Subunit dissociation (increase in free RAMP3)” value was “promoted AMY3R dissociation”. In addition, the “Change of subunit distribution (free RAMP1 / AMY1R heterodimer)” value (“Change … (free RAMP1 / AMY1R heterodimer)” for short) in [6] is “did not appreciably change the free RAMP1”. The “Change of subunit distribution (AMY2R heterodimer / oligomers)” value (from here on “Change … (AMY2R heterodimer / oligomers)”) in assay [7] was “induced formation of a higher order oligomeric species of unknown molecular composition”. Further, the “Effect on CTR-RAMP1 association/dissociation, free RAMP1” value in assay [8] was “little or no effect on subunit association/dissociation”.
For rat amylin [rAmylin], the “Change … real-time” value in assay [5] is recorded as “no effect”. Further, the “Change … (free RAMP1 / AMY1R heterodimer)” value in assay [6] is “reduced free RAMP1 and increased the amount of the AMY1R heterodimer”. Besides, in assay [7], the “Change … (AMY2R heterodimer / oligomers)” value was “appeared to increase the amount of AMY2R heterodimer”. Also, the “Effect on CTR-RAMP1 association/dissociation, free RAMP1” value in [8] is on record as “decreased free RAMP1 with increasing agonist”.
For the substance “cagrilintide (KCNTATCATQRLAEFLRHSSNNFGPILPPTNVGSNTP; chains of the INN, looked up)”, the “Weight loss in clinical trials” value in assay [9] (ref [9]-[12]) is “promote substantial weight loss”.
Take human calcitonin [hCT]: the “Change … real-time” value was “a brief initial decrease followed by a gradual increase” in [2], “similarly decreased it” in assay [3] and “decreased the BRET signal” in assay [5]. The “Quaternary complex formation (in words)” value in [4] and in assay [12] was “little if any quaternary complex” throughout. In [4], the “Subunit dissociation (increase in free RAMP3)” value is “promoted AMY3R dissociation”. Besides, the “Potency change on RAMP1 co-expression, cAMP” value in assay [10] is reported as “did not change hCT potency”. Moreover, the “Change … (free RAMP1 / AMY1R heterodimer)” value in assay [6] was “did not appreciably change the free RAMP1”. Moreover, the “Steepness of cAMP concentration-response curve” value in assay [11] is “steeper than the other curves”. The “Potency change on RAMP3 co-expression, cAMP” value in assay [11] (vs CTR alone) was “decreased hCT potency”. For the same substance, the “Change … (AMY2R heterodimer / oligomers)” value in assay [7] is reported as “induced formation of a higher order oligomeric species of unknown molecular composition”. Further, the “Effect on CTR-RAMP1 association/dissociation, free RAMP1” value in [8] is recorded as “little or no effect on subunit association/dissociation”.
As for “pramlintide (KCNTATCATQRLANFLVHSSNNFGPILPPTNVGSNTY-NH2; disulfide 2-7; UniProt P10997 34-70, looked up, variant A25P S28P S29P)”, the “Insulin adjunct therapy, glycemic control” value in [9] (ref [8]) is listed as “improved glycemic control”.
